Data taken from ChEMBL document CHEMBL5584255, “Synthesis and antibacterial medicinal evaluation of carbothioamido hydrazonyl thiazolylquinolone with multitargeting antimicrobial potential to combat increasingly global resistance” (Eur J Med Chem, 2024).
≈ marks a conversion by molar mass, not a printed value.

Legend:
Type in all cases: functional
Staphylococcus aureus [1] = test: Antibacterial activity against Staphylococcus aureus ATCC 25923 by microbroth dilution method
Staphylococcus aureus [2] = test: Antibacterial activity against methicillin-resistant Staphylococcus aureus N315 by microbroth dilution method
Staphylococcus aureus [3] = test: Antibacterial activity against Staphylococcus aureus ATCC 29213 by microbroth dilution method
Escherichia coli [4] = test: Antibacterial activity against Escherichia coli ATCC 25922 by microbroth dilution method
Candida parapsilosis = test: Antifungal activity against Candida parapsilosis ATCC 22019; details: Lodderomyces parapsilosis
Aspergillus fumigatus = test: Antifungal activity against Aspergillus fumigatus
Pseudomonas aeruginosa [5] = test: Antibacterial activity against Pseudomonas aeruginosa ATCC 27853 by microbroth dilution method
Escherichia coli [6] = test: Antibacterial activity against drug-resistant Escherichia coli by microbroth dilution method
Acinetobacter baumannii = test: Antibacterial activity against Acinetobacter baumannii by microbroth dilution method
Pseudomonas aeruginosa [7] = test: Antibacterial activity against Pseudomonas aeruginosa by microbroth dilution method
Candida tropicalis = test: Antifungal activity against drug-resistant Candida tropicalis
Enterococcus faecalis = test: Antibacterial activity against drug-resistant Enterococcus faecalis by microbroth dilution method
Candida albicans [8] = test: Antifungal activity against Candida albicans ATCC 90023
Klebsiella pneumoniae = test: Antibacterial activity against Klebsiella pneumoniae by microbroth dilution method
Candida albicans [9] = test: Antifungal activity against drug-resistant Candida albicans
Staphylococcus aureus [10] = test: Antibacterial activity against drug-resistant Staphylococcus aureus by microbroth dilution method

Nc1nc(-c2c[nH]c3ccc(F)cc3c2=O)cs1
MIC (Staphylococcus aureus [1]): 490 µM (≈ 128 µg/mL)
MIC (Staphylococcus aureus [2]): 490 µM (≈ 128 µg/mL)
MIC (Staphylococcus aureus [3]): 490 µM (≈ 128 µg/mL)
MIC (Escherichia coli [4]): 490 µM (≈ 128 µg/mL)
MIC (Candida parapsilosis): 245 µM (≈ 64 µg/mL)
MIC (Aspergillus fumigatus): 245 µM (≈ 64 µg/mL)
MIC (Pseudomonas aeruginosa [5]): 245 µM (≈ 64 µg/mL)
MIC (Escherichia coli [6]): 490 µM (≈ 128 µg/mL)
MIC (Acinetobacter baumannii): 490 µM (≈ 128 µg/mL)
MIC (Pseudomonas aeruginosa [7]): 981 µM (≈ 256 µg/mL)
MIC (Candida tropicalis): 490 µM (≈ 128 µg/mL)
MIC (Enterococcus faecalis): 490 µM (≈ 128 µg/mL)
MIC (Candida albicans [8]): 61 µM (≈ 15.9 µg/mL)
MIC (Klebsiella pneumoniae): 490 µM (≈ 128 µg/mL)
MIC (Candida albicans [9]): 245 µM (≈ 64 µg/mL)
MIC (Staphylococcus aureus [10]): 490 µM (≈ 128 µg/mL)

Nc1nc(-c2c[nH]c3cc(Cl)c(F)cc3c2=O)cs1
MIC (Staphylococcus aureus [1]): 217 µM (≈ 64.2 µg/mL)
MIC (Staphylococcus aureus [2]): 1740 µM (≈ 513 µg/mL)
MIC (Staphylococcus aureus [3]): 434 µM (≈ 128 µg/mL)
MIC (Escherichia coli [4]): 217 µM (≈ 64.2 µg/mL)
MIC (Candida parapsilosis): 1740 µM (≈ 513 µg/mL)
MIC (Aspergillus fumigatus): 217 µM (≈ 64.2 µg/mL)
MIC (Pseudomonas aeruginosa [5]): 868 µM (≈ 257 µg/mL)
MIC (Escherichia coli [6]): 434 µM (≈ 128 µg/mL)
MIC (Acinetobacter baumannii): 868 µM (≈ 257 µg/mL)
MIC (Pseudomonas aeruginosa [7]): 868 µM (≈ 257 µg/mL)
MIC (Candida tropicalis): 217 µM (≈ 64.2 µg/mL)
MIC (Enterococcus faecalis): 868 µM (≈ 257 µg/mL)
MIC (Candida albicans [8]): 109 µM (≈ 32.2 µg/mL)
MIC (Klebsiella pneumoniae): 868 µM (≈ 257 µg/mL)
MIC (Candida albicans [9]): 217 µM (≈ 64.2 µg/mL)
MIC (Staphylococcus aureus [10]): 868 µM (≈ 257 µg/mL)

Cc1nc(-c2c[nH]c3c(F)cccc3c2=O)cs1
MIC (Staphylococcus aureus [1]): 985 µM (≈ 256 µg/mL)
MIC (Staphylococcus aureus [2]): 1970 µM (≈ 513 µg/mL)
MIC (Staphylococcus aureus [3]): 1970 µM (≈ 513 µg/mL)
MIC (Escherichia coli [4]): 985 µM (≈ 256 µg/mL)
MIC (Candida parapsilosis): 492 µM (≈ 128 µg/mL)
MIC (Aspergillus fumigatus): 492 µM (≈ 128 µg/mL)
MIC (Pseudomonas aeruginosa [5]): 492 µM (≈ 128 µg/mL)
MIC (Escherichia coli [6]): 1970 µM (≈ 513 µg/mL)
MIC (Acinetobacter baumannii): 492 µM (≈ 128 µg/mL)
MIC (Pseudomonas aeruginosa [7]): 985 µM (≈ 256 µg/mL)
MIC (Candida tropicalis): 492 µM (≈ 128 µg/mL)
MIC (Enterococcus faecalis): 985 µM (≈ 256 µg/mL)
MIC (Candida albicans [8]): 985 µM (≈ 256 µg/mL)
MIC (Klebsiella pneumoniae): 985 µM (≈ 256 µg/mL)
MIC (Candida albicans [9]): 985 µM (≈ 256 µg/mL)
MIC (Staphylococcus aureus [10]): 1970 µM (≈ 513 µg/mL)

Cc1nc(-c2c[nH]c3cc(F)c(F)cc3c2=O)cs1
MIC (Staphylococcus aureus [1]): 460 µM (≈ 128 µg/mL)
MIC (Staphylococcus aureus [2]): 460 µM (≈ 128 µg/mL)
MIC (Staphylococcus aureus [3]): 921 µM (≈ 256 µg/mL)
MIC (Escherichia coli [4]): 460 µM (≈ 128 µg/mL)
MIC (Candida parapsilosis): 1840 µM (≈ 513 µg/mL)
MIC (Aspergillus fumigatus): 921 µM (≈ 256 µg/mL)
MIC (Pseudomonas aeruginosa [5]): 460 µM (≈ 128 µg/mL)
MIC (Escherichia coli [6]): 1840 µM (≈ 513 µg/mL)
MIC (Acinetobacter baumannii): 1840 µM (≈ 513 µg/mL)
MIC (Pseudomonas aeruginosa [7]): 921 µM (≈ 256 µg/mL)
MIC (Candida tropicalis): 921 µM (≈ 256 µg/mL)
MIC (Enterococcus faecalis): 460 µM (≈ 128 µg/mL)
MIC (Candida albicans [8]): 115 µM (≈ 32 µg/mL)
MIC (Klebsiella pneumoniae): 1840 µM (≈ 513 µg/mL)
MIC (Candida albicans [9]): 460 µM (≈ 128 µg/mL)
MIC (Staphylococcus aureus [10]): 1840 µM (≈ 513 µg/mL)

CC(=O)Cn1cc(-c2csc(N)n2)c(=O)c2cc(F)c(F)cc21
MIC (Staphylococcus aureus [1]): 382 µM (≈ 128 µg/mL)
MIC (Staphylococcus aureus [2]): 382 µM (≈ 128 µg/mL)
MIC (Staphylococcus aureus [3]): 382 µM (≈ 128 µg/mL)
MIC (Escherichia coli [4]): 382 µM (≈ 128 µg/mL)
MIC (Candida parapsilosis): 764 µM (≈ 256 µg/mL)
MIC (Aspergillus fumigatus): 382 µM (≈ 128 µg/mL)
MIC (Pseudomonas aeruginosa [5]): 382 µM (≈ 128 µg/mL)
MIC (Escherichia coli [6]): 764 µM (≈ 256 µg/mL)
MIC (Acinetobacter baumannii): 382 µM (≈ 128 µg/mL)
MIC (Pseudomonas aeruginosa [7]): 382 µM (≈ 128 µg/mL)
MIC (Candida tropicalis): 764 µM (≈ 256 µg/mL)
MIC (Enterococcus faecalis): 382 µM (≈ 128 µg/mL)
MIC (Candida albicans [8]): 382 µM (≈ 128 µg/mL)
MIC (Klebsiella pneumoniae): 764 µM (≈ 256 µg/mL)
MIC (Candida albicans [9]): 764 µM (≈ 256 µg/mL)
MIC (Staphylococcus aureus [10]): 382 µM (≈ 128 µg/mL)

CC(=O)Cn1cc(-c2csc(C)n2)c(=O)c2cc(F)cc(F)c21
MIC (Staphylococcus aureus [1]): 1530 µM (≈ 513 µg/mL)
MIC (Staphylococcus aureus [2]): 1530 µM (≈ 513 µg/mL)
MIC (Staphylococcus aureus [3]): 1530 µM (≈ 513 µg/mL)
MIC (Escherichia coli [4]): 1530 µM (≈ 513 µg/mL)
MIC (Candida parapsilosis): 1530 µM (≈ 513 µg/mL)
MIC (Aspergillus fumigatus): 383 µM (≈ 128 µg/mL)
MIC (Pseudomonas aeruginosa [5]): 1530 µM (≈ 513 µg/mL)
MIC (Escherichia coli [6]): 1530 µM (≈ 513 µg/mL)
MIC (Acinetobacter baumannii): 766 µM (≈ 256 µg/mL)
MIC (Pseudomonas aeruginosa [7]): 1530 µM (≈ 513 µg/mL)
MIC (Candida tropicalis): 1530 µM (≈ 513 µg/mL)
MIC (Enterococcus faecalis): 1530 µM (≈ 513 µg/mL)
MIC (Candida albicans [8]): 766 µM (≈ 256 µg/mL)
MIC (Klebsiella pneumoniae): 383 µM (≈ 128 µg/mL)
MIC (Candida albicans [9]): 1530 µM (≈ 513 µg/mL)
MIC (Staphylococcus aureus [10]): 1530 µM (≈ 513 µg/mL)

CC(=O)Cn1cc(-c2csc(C)n2)c(=O)c2cc(F)ccc21
MIC (Staphylococcus aureus [1]): 1620 µM (≈ 512 µg/mL)
MIC (Staphylococcus aureus [2]): 1620 µM (≈ 512 µg/mL)
MIC (Staphylococcus aureus [3]): 405 µM (≈ 128 µg/mL)
MIC (Escherichia coli [4]): 1620 µM (≈ 512 µg/mL)
MIC (Candida parapsilosis): 1620 µM (≈ 512 µg/mL)
MIC (Aspergillus fumigatus): 810 µM (≈ 256 µg/mL)
MIC (Pseudomonas aeruginosa [5]): 810 µM (≈ 256 µg/mL)
MIC (Escherichia coli [6]): 1620 µM (≈ 512 µg/mL)
MIC (Acinetobacter baumannii): 1620 µM (≈ 512 µg/mL)
MIC (Pseudomonas aeruginosa [7]): 810 µM (≈ 256 µg/mL)
MIC (Candida tropicalis): 810 µM (≈ 256 µg/mL)
MIC (Enterococcus faecalis): 1620 µM (≈ 512 µg/mL)
MIC (Candida albicans [8]): 405 µM (≈ 128 µg/mL)
MIC (Klebsiella pneumoniae): 810 µM (≈ 256 µg/mL)
MIC (Candida albicans [9]): 810 µM (≈ 256 µg/mL)
MIC (Staphylococcus aureus [10]): 1620 µM (≈ 512 µg/mL)

CC(=O)Cn1cc(-c2csc(N)n2)c(=O)c2cccc(F)c21
MIC (Staphylococcus aureus [1]): 404 µM (≈ 128 µg/mL)
MIC (Staphylococcus aureus [2]): 404 µM (≈ 128 µg/mL)
MIC (Staphylococcus aureus [3]): 807 µM (≈ 256 µg/mL)
MIC (Escherichia coli [4]): 807 µM (≈ 256 µg/mL)
MIC (Candida parapsilosis): 404 µM (≈ 128 µg/mL)
MIC (Aspergillus fumigatus): 404 µM (≈ 128 µg/mL)
MIC (Pseudomonas aeruginosa [5]): 404 µM (≈ 128 µg/mL)
MIC (Escherichia coli [6]): 807 µM (≈ 256 µg/mL)
MIC (Acinetobacter baumannii): 404 µM (≈ 128 µg/mL)
MIC (Pseudomonas aeruginosa [7]): 807 µM (≈ 256 µg/mL)
MIC (Candida tropicalis): 202 µM (≈ 64.1 µg/mL)
MIC (Enterococcus faecalis): 404 µM (≈ 128 µg/mL)
MIC (Candida albicans [8]): 404 µM (≈ 128 µg/mL)
MIC (Klebsiella pneumoniae): 404 µM (≈ 128 µg/mL)
MIC (Candida albicans [9]): 404 µM (≈ 128 µg/mL)
MIC (Staphylococcus aureus [10]): 807 µM (≈ 256 µg/mL)

CC(=O)Cn1cc(-c2csc(N)n2)c(=O)c2cc(F)ccc21
MIC (Staphylococcus aureus [1]): 202 µM (≈ 64.1 µg/mL)
MIC (Staphylococcus aureus [2]): 404 µM (≈ 128 µg/mL)
MIC (Staphylococcus aureus [3]): 404 µM (≈ 128 µg/mL)
MIC (Escherichia coli [4]): 404 µM (≈ 128 µg/mL)
MIC (Candida parapsilosis): 1620 µM (≈ 513 µg/mL)
MIC (Aspergillus fumigatus): 404 µM (≈ 128 µg/mL)
MIC (Pseudomonas aeruginosa [5]): 404 µM (≈ 128 µg/mL)
MIC (Escherichia coli [6]): 404 µM (≈ 128 µg/mL)
MIC (Acinetobacter baumannii): 807 µM (≈ 256 µg/mL)
MIC (Pseudomonas aeruginosa [7]): 404 µM (≈ 128 µg/mL)
MIC (Candida tropicalis): 404 µM (≈ 128 µg/mL)
MIC (Enterococcus faecalis): 807 µM (≈ 256 µg/mL)
MIC (Candida albicans [8]): 51 µM (≈ 16.2 µg/mL)
MIC (Klebsiella pneumoniae): 807 µM (≈ 256 µg/mL)
MIC (Candida albicans [9]): 404 µM (≈ 128 µg/mL)
MIC (Staphylococcus aureus [10]): 404 µM (≈ 128 µg/mL)

Nc1nc(Cn2cc(-c3csc(N)n3)c(=O)c3cc(F)c(Cl)cc32)cs1
MIC (Staphylococcus aureus [1]): 39 µM (≈ 15.9 µg/mL)
MIC (Staphylococcus aureus [2]): 315 µM (≈ 128 µg/mL)
MIC (Staphylococcus aureus [3]): 20 µM (≈ 8.16 µg/mL)
MIC (Escherichia coli [4]): 20 µM (≈ 8.16 µg/mL)
MIC (Candida parapsilosis): 79 µM (≈ 32.2 µg/mL)
MIC (Aspergillus fumigatus): 315 µM (≈ 128 µg/mL)
MIC (Pseudomonas aeruginosa [5]): 39 µM (≈ 15.9 µg/mL)
MIC (Escherichia coli [6]): 157 µM (≈ 64 µg/mL)
MIC (Acinetobacter baumannii): 157 µM (≈ 64 µg/mL)
MIC (Pseudomonas aeruginosa [7]): 157 µM (≈ 64 µg/mL)
MIC (Candida tropicalis): 315 µM (≈ 128 µg/mL)
MIC (Enterococcus faecalis): 315 µM (≈ 128 µg/mL)
MIC (Candida albicans [8]): 39 µM (≈ 15.9 µg/mL)
MIC (Klebsiella pneumoniae): 315 µM (≈ 128 µg/mL)
MIC (Candida albicans [9]): 157 µM (≈ 64 µg/mL)
MIC (Staphylococcus aureus [10]): 39 µM (≈ 15.9 µg/mL)
